The numbers were not newly measured in patent US20210205361A1, “COMPOSITIONS AND METHODS FOR CANCER IMMUNOTHERAPY” (priority 2016, published 2021), which cites them from elsewhere.

Data set [1] has as its system recurrent multifocal GBM. Particulars: two pediatric patients refractory to standard therapies.
Data set [2] deals with diffuse large B-cell lymphoma (DLBCL).
The subject of data set [3] is advanced, treatment-refractory malignancies. Conditions: subjects with non-small cell lung cancer (NSCLC).

With “nivolumab: immune checkpoint inhibitor, anti-PD1 antibody”, the response entry in data set [1] is “remarkable and durable responses”.

As for “CT-011: humanized IgG1 monoclonal antibody against PD-1”, in data set [2] (DLBCL subjects after autologous stem cell transplantation, control group 47%), the “subjects progression-free at the end of the follow-up period” value is on record as 70%. Moreover, the subjects alive in data set [2] (DLBCL subjects after autologous stem cell transplantation, control group 62%) was 82%. In addition, the “activity of natural killer cells” value in data set [2] (finding of the phase II trial) was “augments”.

Regarding “BMS-936558: fully human IgG4 monoclonal antibody targeting PD-1”, the clinical activity entry in data set [3] is given as “substantial clinical activity”.
